In assay [1] the target is T1, varicella zoster virus DNA polymerase (Varicella-zoster virus, UniProt P09252).
T1 construct: made in house; host or cells: SF21 insect cells (baculovirus vector)
Kind of assay: VZV polymerase assay (AlphaLISA). The assay is classed as biochemical. As to conditions: VZV DNA polymerase 0.4 nM, 60 minutes at 37° C. The procedure: Human cytomegalovirus and varicella zoster virus DNA polymerases were expressed via baculovirus vector in SF21 cells and purified. Heterodimeric nucleic acid substrate used in the herpesvirus polymerase reactions was generated by annealing a 59-mer template to a 17-mer digoxigenin-labeled primer. Polymerase (HCMV final concentration of 0.2 nM; VZV final concentration of 0.4 nM) was combined with an inhibitor compound or DMSO in assay buffer (10 mM HEPES, pH 7.5, 25 mM KCl, 25 mM NaCl, 5 mM MgCl2, 5% glycerol, 0.67 mg/ml bovine serum albuminutes, and 1 mM tris(2-carboxyethyl)phosphine), and this mixture was pre-incubated for 30 minutes at room temperature in 384-well microtiter plates. The polymerization reaction was initiated by the addition of template/primer substrate (final concentration: 1.6 nM), and dNTPs (final concentration: 24 nM dCTP, 24 nMdGTP, 16 nM dATP, 16 nM dTTP, and 0.8 nM biotin-dUTP). After 60 minutes incubation at 37° C., reactions were terminated with quench buffer (25 mM HEPES pH 7.5, 100 mM NaCl, 0.25% Tween-20, 12 mM EDTA, and 1 mg/ml bovine serum albumin). Incorporation of biotinylated UTP was detected with 2.5-ug/ml anti-DIG AlphaLISA acceptor beads and 5-10 ug/ml streptavidin AlphaLISA donor beads (Perkin Elmer). Compound effects were normalized to the window defined by the controls (DMSO only and pre-quenched wells) and were fit using a 4-parameter algorithm to report an IC50.
(Bead proximity is the source of the signal in Alpha formats.)

Assay [2] has as its target T2, Human cytomegalovirus DNA polymerase (Human cytomegalovirus, UniProt P08546).
T2 construct: made in house; host or cells: SF21 insect cells (baculovirus vector)
Kind of assay: HCMV polymerase assay (AlphaLISA). As to conditions: HCMV DNA polymerase 0.2 nM, 60 minutes at 37° C.; read-out: CMV (IC50). The assay is classed as biochemical. Put shortly: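 Baculovirus/SF21-expressed polymerase (HCMV 0.2 nM; VZV 0.4 nM) pre-incubated 30 min at room temperature with compound in HEPES pH 7.5 buffer, then 60 min at 37 °C with 1.6 nM DIG-primer/template, sub-nM to 24 nM dNTPs and 0.8 nM biotin-dUTP. AlphaLISA detection; IC50 from 4-parameter fit.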

The test system of assay [3] is VZV. As to the kind of experiment: Viral qPCR assay, VZV in MRC5 cells. The assay is classed as cell-based, varicella zoster virus. As to conditions: read-out: VZV MRC5 Cell (IC50). The method, then:
(§1) MRCS cells, Vero cells, and MeWo cells were obtained from ATCC and were maintained at 37° C./5% CO2/90% relative humidity in Minimal Essential Medium with 10% fetal bovine serum, […] L-glutamine, 100 units/ml penicillin and 100 ug/ml streptomycin. Assay plates were prepared by dispensing compounds dissolved in DMSO into wells of 384 well collagen-coated plates using an ECHO acoustic dispenser. Each compound was tested in a 10-point, serial 3-fold dilution. Controls included uninfected cells and infected cells treated only with DMSO. Assays were initiated by mixing selected cells, in suspension, with virus, and dispensing 50 μl/well infected cells to pre-plated compounds. Plates were incubated at 37° C./5% CO2/90% relative humidity for ˜72 hrs to permit genomic replication, and infected cells were lysed by the addition of an equal volume of lysis buffer (10 mM Tris-HCl, pH8, 50 mM KCl, 2 mM MgCl2, 0.45% NP-40, 0.45% Tween-20, and 100 μg/ml proteinase K). An aliquot of the lysate was transferred to a 384-well PCR plate and incubated at 56° C. for 1 hour and then at 95° C. for 10 min. Levels of a viral gene and of the cellular control, PPIA (Thermo Fisher Assay ID=Hs04194521_s1), were measured in separate 10 μL qPCR assays using TaqMan® Gene Expression Master Mix (Applied Biosystems), and an 7900HT Fast Real-Time PCR System with 384-Well Block Module. 7-point, serial 10-fold dilutions of a plasmid standard were run on each plate to generate a standard curve, and genome copies numbers were calculated by plotting experimental Ct onto linear regression of the standard curve. Viral genome copy numbers were normalized by cellular control copy number, and compound effects were normalized to the window defined by the controls. Calculated % effects were fit using a 4-parameter algorithm, and EC50 was reported.
as §1, with “gene” for “gene and of the cellular control, PPIA (Thermo Fisher Assay ID=Hs04194521_s1),”, “in” for “in separate”, “Compound effects on viral” for “Viral”, “number” for “numbers were normalized by cellular control copy number, and compound effects”
(§2) VZV: Strain Street was maintained as an infected cell stock in MRC-5 cells. It was assayed in MeWo or MRCS cells and was used at 0.04-0.1 pfu/cell. The assays were performed in growth medium. Primer-probe set was Thermo Fisher Assay ID=AIPAEXQ. HSV-1: Strain F Street was assayed in Vero or MRCS cells and was used at 0.0005-0.004 pfu/cell in growth medium. Primer-probe set was Thermo Fisher Assay ID=AIBJZIB
On the technique in general: In qPCR the cycle at which signal appears reflects the starting amount.

Assay [4] has as its system HSV-1 Strain F. Kind of assay: Viral qPCR assay, HSV-1 in MRC5 cells. The assay is classed as cell-based, Herpes Simplex Virus type 1. As to conditions: read-out: HSV1 MRC5 Cell (EC50). The procedure: as §1
as §1, with “gene” for “gene and of the cellular control, PPIA (Thermo Fisher Assay ID=Hs04194521_s1),”, “in” for “in separate”, “Compound effects on viral” for “Viral”, “number” for “numbers were normalized by cellular control copy number, and compound effects”
as §2

Assay [5] has as its system HSV2. As to the kind of experiment: Viral qPCR assay, HSV2 in MRC5 cells. The assay is classed as cell-based, Herpes Simplex Virus type 2. Conditions: read-out: HSV2 MRC5 Cell (EC50). The method, then:
as §1
as §1, with “gene” for “gene and of the cellular control, PPIA (Thermo Fisher Assay ID=Hs04194521_s1),”, “in” for “in separate”, “Compound effects on viral” for “Viral”, “number” for “numbers were normalized by cellular control copy number, and compound effects”

Assay [6] deals with HCMV Strain AD169. As to the kind of experiment: Viral qPCR assay, HCMV in MRC-5 cells. The assay is classed as cell-based, Human cytomegalovirus. Conditions: read-out: CMV MRC5 Cell (EC50). In outline:
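Viral genome copies, quantified by TaqMan qPCR with a plasmid standard curve after ~72 h infection of MRC-5 cells with AD169 at 0.05-0.1 pfu/cell, served as readout; PPIA normalisation used in one format. Compounds run as 10-point 3-fold series, in standard or 50% FBS media; EC50 by 4-parameter fit.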

Setting [7] is: Human alphaherpesvirus 3, MRC5, 72 h.
The mark [8] stands for this setting: Human alphaherpesvirus 1, MRC5, 72 h.
[9] abbreviates: Human alphaherpesvirus 2, MRC5, 72 h.
Where [10] appears, read: Human betaherpesvirus 5, AD169, MRC5, 72 h.

Where two headings read alike, the source gives them in different places.

T1 sequence (P09252 whole entry): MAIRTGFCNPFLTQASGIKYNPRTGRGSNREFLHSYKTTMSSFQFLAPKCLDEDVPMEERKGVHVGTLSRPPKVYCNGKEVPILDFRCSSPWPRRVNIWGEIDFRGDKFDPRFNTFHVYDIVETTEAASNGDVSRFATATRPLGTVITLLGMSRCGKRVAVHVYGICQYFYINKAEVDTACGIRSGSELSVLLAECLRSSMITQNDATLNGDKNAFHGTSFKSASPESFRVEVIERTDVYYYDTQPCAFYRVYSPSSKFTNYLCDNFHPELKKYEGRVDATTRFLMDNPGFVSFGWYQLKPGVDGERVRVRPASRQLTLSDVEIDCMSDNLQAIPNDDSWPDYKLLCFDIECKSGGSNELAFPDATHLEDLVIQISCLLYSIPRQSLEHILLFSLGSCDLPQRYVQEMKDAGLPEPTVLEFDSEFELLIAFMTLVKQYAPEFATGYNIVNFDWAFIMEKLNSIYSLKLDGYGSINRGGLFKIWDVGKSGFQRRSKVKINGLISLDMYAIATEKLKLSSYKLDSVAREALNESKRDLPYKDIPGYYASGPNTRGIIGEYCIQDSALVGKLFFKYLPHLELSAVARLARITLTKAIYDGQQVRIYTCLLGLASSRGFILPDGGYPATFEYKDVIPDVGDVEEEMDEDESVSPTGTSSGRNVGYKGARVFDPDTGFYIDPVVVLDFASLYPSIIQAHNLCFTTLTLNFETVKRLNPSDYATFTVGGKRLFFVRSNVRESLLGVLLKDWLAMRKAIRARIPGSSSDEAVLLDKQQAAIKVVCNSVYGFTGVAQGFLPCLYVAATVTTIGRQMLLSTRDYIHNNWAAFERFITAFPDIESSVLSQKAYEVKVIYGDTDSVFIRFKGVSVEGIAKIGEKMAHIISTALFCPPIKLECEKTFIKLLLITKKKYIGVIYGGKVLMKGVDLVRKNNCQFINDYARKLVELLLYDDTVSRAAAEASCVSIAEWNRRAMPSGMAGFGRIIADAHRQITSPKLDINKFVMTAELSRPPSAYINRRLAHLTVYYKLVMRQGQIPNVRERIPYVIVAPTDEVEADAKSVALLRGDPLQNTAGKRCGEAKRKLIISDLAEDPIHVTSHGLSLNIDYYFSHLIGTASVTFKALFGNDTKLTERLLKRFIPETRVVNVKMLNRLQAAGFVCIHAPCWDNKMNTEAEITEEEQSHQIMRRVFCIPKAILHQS
T2 sequence (P08546 whole entry): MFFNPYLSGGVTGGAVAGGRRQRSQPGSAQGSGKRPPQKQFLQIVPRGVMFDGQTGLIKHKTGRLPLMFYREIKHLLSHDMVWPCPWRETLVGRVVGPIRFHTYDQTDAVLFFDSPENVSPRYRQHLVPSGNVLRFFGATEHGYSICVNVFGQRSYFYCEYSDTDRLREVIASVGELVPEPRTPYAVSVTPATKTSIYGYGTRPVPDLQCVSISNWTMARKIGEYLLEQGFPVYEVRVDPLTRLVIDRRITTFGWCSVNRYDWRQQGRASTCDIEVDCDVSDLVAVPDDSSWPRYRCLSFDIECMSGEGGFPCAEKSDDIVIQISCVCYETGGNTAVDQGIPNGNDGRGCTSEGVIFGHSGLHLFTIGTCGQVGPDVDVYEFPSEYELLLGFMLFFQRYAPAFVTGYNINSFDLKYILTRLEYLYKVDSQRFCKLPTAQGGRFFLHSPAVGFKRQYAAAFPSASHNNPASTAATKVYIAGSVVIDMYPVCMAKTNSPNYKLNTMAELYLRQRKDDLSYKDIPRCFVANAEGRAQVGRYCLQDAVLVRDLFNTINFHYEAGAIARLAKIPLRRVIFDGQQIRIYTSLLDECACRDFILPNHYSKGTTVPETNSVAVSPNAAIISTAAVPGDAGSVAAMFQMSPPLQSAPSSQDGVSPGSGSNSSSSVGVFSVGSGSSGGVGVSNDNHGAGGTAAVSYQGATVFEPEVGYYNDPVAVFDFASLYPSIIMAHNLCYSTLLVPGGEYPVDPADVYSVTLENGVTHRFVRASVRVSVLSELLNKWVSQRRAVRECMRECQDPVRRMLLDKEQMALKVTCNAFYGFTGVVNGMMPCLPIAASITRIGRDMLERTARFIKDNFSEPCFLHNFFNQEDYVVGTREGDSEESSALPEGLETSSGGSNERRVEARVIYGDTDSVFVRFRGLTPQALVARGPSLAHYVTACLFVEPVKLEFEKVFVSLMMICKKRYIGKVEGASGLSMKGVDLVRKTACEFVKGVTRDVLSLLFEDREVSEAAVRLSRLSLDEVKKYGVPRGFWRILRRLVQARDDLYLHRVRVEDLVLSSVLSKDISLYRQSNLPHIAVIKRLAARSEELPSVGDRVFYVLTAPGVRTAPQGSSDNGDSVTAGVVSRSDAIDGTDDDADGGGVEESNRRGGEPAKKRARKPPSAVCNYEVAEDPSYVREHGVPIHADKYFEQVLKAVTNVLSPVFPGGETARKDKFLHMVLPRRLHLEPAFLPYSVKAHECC

What is called IC50 is the concentration needed to halve the response being measured. With `Cn1nc(C(=O)NCc2ccc(Cl)cc2)c2c1CC(CC1CCC(=O)N1)C2` (single isomer, unassigned) [Compound 128], the IC50 in assay [1] was 289 nM; in assay [2], 1060 nM.
Usually EC50 stands for the concentration that produces a half-maximal response. Turning to `O=C1CC[C@@H](CN2Cc3c(C(=O)NCc4ccc(Cl)cc4)nn(-c4nccs4)c3C2)N1` [Compound 42], the IC50 in assay [3] (setting [7]) was 1050 nM; in assay [2], 25.9 nM. The EC50 was found to be 996 nM in assay [4] (setting [8]), 1100 nM in assay [5] (setting [9]) and 940 nM in assay [6] (setting [10]).
In the same order, the values of `O=C1CC[C@@H](CN2Cc3c(C(=O)NCc4ccc(Cl)cc4)nn(C(F)F)c3C2)N1` [Compound 45] are 1030 nM, 37.8 nM, 1990 nM, 1040 nM and 798 nM.
Regarding `Cn1nc(C(=O)NCc2ccc(Cl)cc2)c2c1CN(C[C@@H]1CCC(=O)N1)C2` [Compound 47], the values for the 50% inhibitory concentration (IC50) in assay [3] (setting [7]) and in assay [2] were 657 nM and 38.1 nM, respectively. Moreover, the EC50 in assay [4] (setting [8]) turned out to be 878 nM; in assay [5] (setting [9]), 611 nM; in assay [6] (setting [10]), 328 nM.
Consider `O=C1CC[C@H](CN2Cc3c(C(=O)NCc4ccc(Cl)cc4)nn(Cc4nccs4)c3C2)N1` [Compound 48], for which the IC50 is 118 nM in assay [1] and 69.7 nM in assay [2]. In addition, the 50% effective concentration (EC50) in assay [6] (setting [10]) was 4020 nM.
For `CN(CCn1nc(C(=O)NCc2ccc(Cl)cc2)c2c1CN(Cc1c(F)cncc1F)C2)C(=O)C1CCC1` [Compound 63], the half-inhibitory concentration (IC50) in assay [1] came to 76 nM; in assay [2] it was 99.3 nM.
On to `CN(CCn1nc(C(=O)NCc2ccc(Cl)cc2)c2c1CN(Cc1ccnc(F)c1)C2)C(=O)C1CCC1` [Compound 66], for which the IC50 worked out at 48.6 nM in assay [1] and 112 nM in assay [2].
In the same order, the values of `CN(CCn1nc(C(=O)NCc2ccc(Cl)cc2)c2c1CN(Cc1ccncc1F)C2)C(=O)C1CCC1` [Compound 68] are 59.1 nM and 123 nM.
In the same order, the values of `O=C(NCc1ccc(Cl)cc1)c1nn(CCNC(=O)C2CCC2)c2c1CN(Cc1ccncc1F)C2` [Compound 69] are 84.9 nM and 173 nM.
As for `Cn1nc(C(=O)NCc2ccc(Cl)cc2)c2c1CN(C[C@H]1CC(F)C(=O)N1)C2` (stereo partly shown) [Compound 78], the figures for the IC50 in assay [3] (setting [7]) and in assay [2] were 2870 nM and 252 nM, respectively. The EC50 in assay [4] (setting [8]) turned out to be 3030 nM; in assay [5] (setting [9]) it was 2220 nM; in assay [6] (setting [10]), 2880 nM.
For `Cn1nc(C(=O)NCc2ccc(Cl)cc2)c2c1CN(C[C@@H]1CC(F)C(=O)N1)C2` (stereo partly shown) [Compound 79] the same measures were 1170 nM, 69.6 nM, 1180 nM, 935 nM and 232 nM.
Regarding `Cn1nc(C(=O)NCc2ccc(Cl)cc2)c2c1CN(C[C@@H]1CC(F)(F)C(=O)N1)C2` [Compound 82], the IC50 is 1450 nM in assay [3] (setting [7]) and 60.3 nM in assay [2]. Further, the EC50 in assay [4] (setting [8]) came out at 2880 nM; in assay [5] (setting [9]), 1020 nM; in assay [6] (setting [10]), 250 nM.
Regarding `CCC(C1CCC(=O)N1)N1Cc2c(C(=O)NCc3ccc(Cl)cc3)nn(C)c2C1` (stereo not shown) [Compound 90], the IC50 in assay [3] (~72 hrs) was 1230 nM; in assay [2], 31.7 nM. Further, the EC50 in assay [4] (~72 hrs) stood at 1320 nM; in assay [5] (~72 hrs), 1180 nM; in assay [6] (MRC5 cells, ~72 hrs) it was 212 nM.
`Cn1nc(C(=O)NCc2ccc(Cl)cc2)c2c1CN(CC13CC1CC(=O)N3)C2` (stereo not shown) [Compound 95]: the values for the IC50 in assay [3] (setting [7]) and in assay [2] were 4550 nM and 127 nM, respectively. For the same compound, the values for the EC50 in assay [4] (setting [8]), in assay [5] (setting [9]) and in assay [6] (setting [10]) were 3300 nM, 3720 nM and 632 nM, respectively.
For `O=C1N[C@@H](CN2Cc3c(C(=O)NCc4ccc(Cl)cc4)nn(C(F)F)c3C2)CO1` [Compound 99] the same measures were 53.1 nM, 5.07 nM, 79.5 nM, 43.2 nM and 60.5 nM.
`CC1c2c(c(C(=O)NCc3ccc(Cl)cc3)nn2C)CN1C(C)C1CCC(=O)N1` (stereo not shown) [Compound 111]: the results for the IC50 in assay [3] (~72 hrs) and in assay [2] were 402 nM and 57.9 nM, respectively. In addition, the EC50 in assay [4] (~72 hrs) stood at 557 nM; in assay [5] (~72 hrs), 248 nM; in assay [6] (MRC5 cells, ~72 hrs), 125 nM.
In the same order, the values of `CC1c2c(c(C(=O)NCc3ccc(Cl)cc3)nn2C)CN1C(C)C1CCC(=O)N1` (stereo not shown) [Compound 112] are 263 nM, 105 nM, 294 nM, 233 nM and 148 nM.
For `Cn1nc(C(=O)NCc2ccc(Cl)cc2)c2c1C1(CCC1)N(C[C@H]1CCC(=O)N1)C2` [Compound 124] the same measures were 2160 nM, 141 nM, 3360 nM, 2350 nM and 581 nM.

Values taken from patent publication US20240059693A1, “FUSED BICYCLIC PYRAZOLE DERIVATIVES AND METHODS OF USE THEREOF FOR THE TREATMENT OF HERPESVIRUSES” (Merck Sharp & Dohme LLC, priority 2020, published 2024).
